Experimental data published in US6548307B2, “Determination of logP coefficients via a RP-HPLC column” (Pfizer Inc., priority 2000, dated 2003).
Where two headings read alike, the source gives them in different places.

Tests used:
[1] = Shake-flask data from literature references; cited from earlier work
physchem = conditions: for log k′2 (capacity factor extrapolated to 0% methanol): Average of at least three determinations on different LC-ABZ columns, 20 mM MOPS pH 7.4/methanol with octanol; for Residual: logPoct minus ElogPoct
Protocol: The mobile phase consisted, in all cases, of 20 mM MOPS buffer at pH 7.4, and methanol in varying proportions from 70 to 15% v/v. […] The capacity factors data (k′=(tR−t0)/t0) obtained at various amounts of methanol were then extrapolated to 0% methanol and reported as log k′w, using a linear procedure. […] Injections of pure methanol were used to determine t0, i.e. the dead time, while tR has the usual meaning of the retention time for the analyte.
All the chromatographic runs were performed on a HP-1100 HPLC ChemStation at the ambient temperature. The columns used were Supelcosil LC-ABZ, 5μm, 4.6×50 mm. […] Columns having different silica bond lots were tested to ensure reproducibility. Samples were dissolved in 1:1 methanol/water at a concentration of 10-30 μg/mL. The flow rate was 0.5, 1 or 2 mL/min, depending on the lipophilicity range. Three lipophilicity ranges were established using, in all cases, three points for the extrapolation to k′w, as described in the table below.
The samples were placed in the appropriate range by estimating their lipophilicity via computed values, or by prior experience with a given class. In each case the entire group of samples was run before the column is equilibrated to the next condition, in an automated fashion, and the initial estimation need not be very accurate. The data analysis was automated via in-house software yielding the ElogPoct values, directly from the chromatographic data files.

[2] = Shake-flask octanol/buffer partition coefficient (logPoct); format: physicochemical; conditions: Shake-flask data, this work (in-house, octanol/MOPS buffer, overnight shaking)
Excerpt: The shake-flask logPoct data were taken from the literature or determined in-house, except when data were not available or could not be determined experimentally due to the high lipophilicity of the compound. In such cases a computed value was used. The shake-vial experimental measurements performed in-house were all conducted at least in duplicate, in amber glass vials and, in some cases, with varying ratios of octanol and MOPS buffer, mutually pre-saturated prior to the experiment. Overnight shaking was used. HPLC analysis at different wavelengths, after centrifugation and separation of the phases, was used for the quantitative analysis, using both phases.

[3] = Data from Equation 3 (from log k′w)

## Oc1cc(Cl)cc(Cl)c1 [3,5-Dichlorophenol]
[1]
  logPoct: 3.68
physchem
  chromatographic logP: 3.91
  log k′2 (capacity factor extrapolated to 0% methanol): 3.40
  Residual: −0.23

## Brc1cnc2ccccc2c1 [3-Bromoquinoline]
[1]
  logPoct: 3.03
physchem
  chromatographic logP: 2.95
  log k′2 (capacity factor extrapolated to 0% methanol): 2.54
  Residual: 0.08

## Oc1cccc(Cl)c1 [3-Clorophenol]
physchem
  log k′2 (capacity factor extrapolated to 0% methanol): 2.49
  Residual: −0.40

## CC(=O)Nc1ccc(O)cc1 [Acetaminophen]
physchem
  chromatographic logP: 0.11
  log k′2 (capacity factor extrapolated to 0% methanol): −0.02
  Residual: 0.40

## CC(=O)c1ccccc1 [Acetophenone]
physchem
  chromatographic logP: 1.59
  log k′2 (capacity factor extrapolated to 0% methanol): 1.31
  Residual: −0.01

## Oc1ncnc2[nH]ncc12 [Allopurinol]
[1]
  logPoct: −0.55
physchem
  log k′2 (capacity factor extrapolated to 0% methanol): −0.89
  Residual: 0.30
physchem; pH 7.4
  ElogPoct: −0.85

## c1ccc(-c2ccc(C(c3ccccc3)n3ccnc3)cc2)cc1 (centres unmarked) [Bifonazole]
[1]
  logPoct: 4.77
physchem
  chromatographic logP: 4.98
  log k′2 (capacity factor extrapolated to 0% methanol): 4.37
  Residual: −0.21

## O=C1CN=C(c2ccccn2)c2cc(Br)ccc2N1 [Bromazepam]
[1]
  logPoct: 1.65
physchem
  chromatographic logP: 1.39
  log k′2 (capacity factor extrapolated to 0% methanol): 1.13
  Residual: 0.26

## NC(=O)N1c2ccccc2C=Cc2ccccc21 [Carbamazepine]
[1]
  logPoct: 2.19
physchem
  chromatographic logP: 2.02
  log k′2 (capacity factor extrapolated to 0% methanol): 1.70
  Residual: 0.17

## C[C@@H]1C[C@H]2[C@@H]3CCC4=CC(=O)C=C[C@]4(C)[C@@]3(F)[C@@H](O)C[C@]2(C)[C@@]1(O)C(=O)CO [Dexamethasone]
[1]
  logPoct: 1.83
physchem
  chromatographic logP: 2.39

## CC/C(=C(/CC)c1ccc(O)cc1)c1ccc(O)cc1 [Diethylstilbestrol]
[1]
  logPoct: 5.07
physchem
  chromatographic logP: 4.75
  log k′2 (capacity factor extrapolated to 0% methanol): 4.16
  Residual: 0.32

## C[C@]12CC[C@@H]3c4ccc(O)cc4CC[C@H]3[C@@H]1CC[C@@H]2O [Estradiol]
physchem
  chromatographic logP: 3.84

## COC1=CC(=O)C[C@@H](C)[C@]12Oc1c(Cl)c(OC)cc(OC)c1C2=O [Griseofulvin]
[1]
  logPoct: 2.18
physchem
  chromatographic logP: 2.59
  log k′2 (capacity factor extrapolated to 0% methanol): 2.21
  Residual: −0.41

## CC(=O)OCC(=O)[C@@]1(O)CC[C@H]2[C@@H]3CCC4=CC(=O)CC[C@]4(C)[C@H]3[C@@H](O)C[C@@]21C [Hydrocortisone-21-acetate]
physchem
  log k′2 (capacity factor extrapolated to 0% methanol): 1.93
  Residual: −0.08
physchem; [3]
  ElogPoct: 2.27

## O=C1Nc2ccc(Cl)cc2C(c2ccccc2Cl)=NC1O (centres unmarked) [Lorazepam]
physchem
  chromatographic logP: 2.75
  log k′2 (capacity factor extrapolated to 0% methanol): 2.36
  Residual: −0.24

## CN1C(=O)C(O)N=C(c2ccccc2Cl)c2cc(Cl)ccc21 (centres unmarked) [Lormetazepam]
[1]
  logPoct: 2.72
physchem
  chromatographic logP: 2.8
  log k′2 (capacity factor extrapolated to 0% methanol): 2.40
  Residual: −0.08

## CSc1ncnc2c1ncn2[C@@H]1O[C@H](CO)[C@@H](O)[C@H]1O [Methylthiolnosine]
physchem
  log k′2 (capacity factor extrapolated to 0% methanol): 0.19
  Residual: −0.25
physchem; [3]
  ElogPoct: 0.34
[2]
  logPoct: 0.09

## Cc1ncc([N+](=O)[O-])n1CCO [Metronidazole]
[1]
  logPoct: −0.02
physchem
  log k′2 (capacity factor extrapolated to 0% methanol): −0.32
  Residual: 0.20
physchem; pH 7.4
  ElogPoct: −0.22

## c1ccc2ccccc2c1 [Naphthalene]
physchem
  chromatographic logP: 3.53
  log k′2 (capacity factor extrapolated to 0% methanol): 3.06
  Residual: −0.16

## O=[N+]([O-])c1ccc(/C=N/O)o1 [Nifuroxime]
physchem
  chromatographic logP: 1.36
  log k′2 (capacity factor extrapolated to 0% methanol): 1.11
  Residual: −0.08
[2]
  logPoct: 1.28

## NC(=O)N/N=C/c1ccc([N+](=O)[O-])o1 [Nitrofurazone]
[1]
  logPoct: 0.23
physchem
  chromatographic logP: 0.24
  log k′2 (capacity factor extrapolated to 0% methanol): 0.10
  Residual: −0.01

## CC(=O)CCCCn1c(=O)c2c(ncn2C)n(C)c1=O [Pentoxifylline]
[1]
  logPoct: 0.29
physchem
  chromatographic logP: 0.31
  log k′2 (capacity factor extrapolated to 0% methanol): 0.16
  Residual: −0.02

## C[C@]12C=CC(=O)C=C1CC[C@@H]1[C@@H]2[C@@H](O)C[C@@]2(C)[C@H]1CC[C@]2(O)C(=O)CO [Prednisolone]
physchem
  chromatographic logP: 1.84
  log k′2 (capacity factor extrapolated to 0% methanol): 1.54
  Residual: −0.24

## C[C@]12C=CC(=O)C=C1CC[C@@H]1[C@@H]2C(=O)C[C@@]2(C)[C@H]1CC[C@]2(O)C(=O)CO [Prednisone]
physchem
  log k′2 (capacity factor extrapolated to 0% methanol): 1.21
  Residual: −0.02

## c1ccc2ncccc2c1 [Quinoline]
physchem
  chromatographic logP: 1.86
  log k′2 (capacity factor extrapolated to 0% methanol): 1.56
  Residual: 0.17

## C[C@]12CC[C@H]3[C@@H](CCC4=CC(=O)CC[C@@]43C)[C@@H]1CC[C@@H]2O [Testosterone]
[1]
  logPoct: 3.29
physchem
  log k′2 (capacity factor extrapolated to 0% methanol): 2.74
  Residual: 0.12
physchem; [3]
  ElogPoct: 3.17

## CS(=O)(=O)c1ccc([C@@H](O)[C@@H](CO)NC(=O)C(Cl)Cl)cc1 [Thiamphenicol]
[1]
  logPoct: −0.27
physchem
  log k′2 (capacity factor extrapolated to 0% methanol): −0.24
  Residual: −0.14
physchem; pH 7.4
  ElogPoct: −0.13

## Cc1cccc(N(C)C(=S)Oc2ccc3ccccc3c2)c1 [Tolnaftate]
physchem
  chromatographic logP: 5.18
  log k′2 (capacity factor extrapolated to 0% methanol): 4.55
  Residual: 0.22
